In patent publication US4918054A, “Antibiotics called `chloropolysporins B and C`, a process for their preparation, and their therapeutic and veterinary use” (Sankyo Company Limited, priority 1985, dated 1990):
Converted amounts (≈) assume the structure as drawn.

Assays:
[1] = system: Staphylococcus aureus FDA 209P JC-1; test: MIC, two-fold agar dilution method, Mueller-Hinton agar; type: cell-based
[2] = system: Staphylococcus aureus SANK 70175; test: as above; type: cell-based
[3] = system: Staphylococcus aureus Smith; test: as above; type: cell-based
[4] = system: Staphylococcus epidermidis SANK 71575; test: as above; type: cell-based
[5] = system: Enterococcus faecalis SANK 71778; test: as above; type: cell-based
[6] = system: Bacillus subtilis PCI 219; test: as above; type: cell-based
[7] = system: Mycobacterium smegmatis ATCC 607; test: as above; type: cell-based
[8] = system: Escherichia coli NIHJ JC-2; test: as above; type: cell-based
[9] = system: Klebsiella pneumoniae PCI 602; test: as above; type: cell-based
[10] = system: Pseudomonas aeruginosa NCTC 10490; test: as above; type: cell-based
[11] = system: Serratia marcescens SANK 73060; test: as above; type: cell-based
[12] = system: Proteus mirabilis SANK 70461; test: as above; type: cell-based
Bacteroides fragilis = test: MIC against anaerobic bacteria, GAM agar medium; type: cell-based
Eubacterium cylindroides = test: MIC against anaerobic bacteria, GAM agar medium; type: cell-based
[13] = system: Fusobacterium necrophorum; test: MIC against anaerobic bacteria, GAM agar medium; type: cell-based
[14] = system: Peptostreptococcus saccharoliticus; test: MIC against anaerobic bacteria, GAM agar medium; type: cell-based
[15] = system: Peptostreptococcus parvulus; test: MIC against anaerobic bacteria, GAM agar medium; type: cell-based
Propionibacterium acnes = test: MIC against anaerobic bacteria, GAM agar medium; type: cell-based
Clostridium symbiosum = test: MIC against anaerobic bacteria, GAM agar medium; type: cell-based
Clostridium ramosum = test: MIC against anaerobic bacteria, GAM agar medium; type: cell-based
Clostridium perfringens = type: cell-based; settings: anaerobic, GAM agar
Clostridium difficile = test: MIC against anaerobic bacteria, GAM agar medium; type: cell-based
Description: The minimal inhibitory concentrations (MIC) of chloropolysporins B and C against various gram-positive and gram-negative bacteria were determined by the two-fold agar dilution method, using a Mueller-Hinton agar medium (produced by Difco); the MIC against anaerobic bacteria was determined using a GAM agar medium (produced by Nissui).

Solubility in solvents = type: physicochemical

| Structure (SMILES) | MIC [1] [µg/mL] | MIC [2] [µg/mL] | MIC [3] [µg/mL] | MIC [4] [µg/mL] | MIC [5] [µg/mL] | MIC [6] [µg/mL] | MIC [7] [µg/mL] | MIC [8] [µg/mL] | MIC [9] [µg/mL] | MIC [10] [µg/mL] | MIC [11] [µg/mL] | MIC [12] [µg/mL] | MIC (Bacteroides fragilis) [µg/mL] | MIC (Eubacterium cylindroides) [µg/mL] | MIC [13] [µg/mL] | MIC [14] [µg/mL] | MIC [15] [µg/mL] | MIC (Propionibacterium acnes) [µg/mL] | MIC (Clostridium symbiosum) [µg/mL] | MIC (Clostridium ramosum) [µg/mL] | further results |
| --- | --- | --- | --- | --- | --- | --- | --- | --- | --- | --- | --- | --- | --- | --- | --- | --- | --- | --- | --- | --- | --- |
| CNC(C(=O)NC1C(=O)NC(c2ccc(O)c(Cl)c2)C(=O)NC2C(=O)NC3C(=O)NC(C(=O)NC(C(=O)O)c4cc(O)cc(O)c4-c4cc3ccc4O)C(OC3CC(N)C(O)C(C)O3)c3ccc(c(Cl)c3)Oc3cc2cc(c3OC2OC(CO)C(O)C(O)C2O)Oc2ccc(cc2Cl)C1OC1OC(CO)C(O)C(O)C1O)c1ccc(OC2OC(C)C(O)C(O)C2O)cc1 (stereo not shown) [Chloropolysporin B, chloropolysporin B] | 1.56 (≈ 0.844 µM) | 3.13 (≈ 1.69 µM) | 12.5 (≈ 6.76 µM) | 3.13 (≈ 1.69 µM) | 1.56 (≈ 0.844 µM) | 0.78 (≈ 0.422 µM) | 25.0 (≈ 13.5 µM) | > 100 | > 100 | > 100 | > 100 | > 100 | > 100 | 6.25 (≈ 3.38 µM) | > 100 | 6.25 (≈ 3.38 µM) | 0.78 (≈ 0.422 µM) | 0.78 (≈ 0.422 µM) | 1.56 (≈ 0.844 µM) | 1.56 (≈ 0.844 µM) | MIC (Clostridium perfringens): 0.20 µg/mL (≈ 0.108 µM); MIC (Clostridium difficile): 0.78 µg/mL (≈ 0.422 µM); solubility in acetone (Solubility in solvents; as its sulfate): sparingly soluble; solubility in benzene (Solubility in solvents; as its sulfate): insoluble; solubility in chloroform (Solubility in solvents; as its sulfate): insoluble; solubility in ethyl acetate (Solubility in solvents; as its sulfate): insoluble; solubility in methanol (Solubility in solvents; as its sulfate): soluble; solubility in water (Solubility in solvents; as its sulfate): soluble; solubility in water (Solubility in solvents; free bases): insoluble in water |
| CNC(C(=O)NC1C(=O)NC(c2ccc(O)c(Cl)c2)C(=O)NC2C(=O)NC3C(=O)NC(C(=O)NC(C(=O)O)c4cc(O)cc(O)c4-c4cc3ccc4O)C(OC3CC(N)C(O)C(C)O3)c3ccc(c(Cl)c3)Oc3cc2cc(c3OC2OC(CO)C(O)C(O)C2O)Oc2ccc(cc2Cl)C1OC1OC(CO)C(O)C(O)C1O)c1ccc(O)cc1 (stereo not shown) [Chloropolysporin C, chloropolysporin C] | 1.56 (≈ 0.916 µM) | 1.56 (≈ 0.916 µM) | 6.25 (≈ 3.67 µM) | 3.13 (≈ 1.84 µM) | 1.56 (≈ 0.916 µM) | 0.78 (≈ 0.458 µM) | 12.5 (≈ 7.34 µM) | > 100 | > 100 | > 100 | > 100 | > 100 | > 100 | 3.13 (≈ 1.84 µM) | > 100 | 3.13 (≈ 1.84 µM) | 0.39 (≈ 0.229 µM) | 0.39 (≈ 0.229 µM) | 0.39 (≈ 0.229 µM) | 1.56 (≈ 0.916 µM) | MIC (Clostridium perfringens): 0.10 µg/mL (≈ 0.0587 µM); MIC (Clostridium difficile): 0.39 µg/mL (≈ 0.229 µM); solubility in acetone (Solubility in solvents; as its sulfate): sparingly soluble; solubility in benzene (Solubility in solvents; as its sulfate): insoluble; solubility in chloroform (Solubility in solvents; as its sulfate): insoluble; solubility in ethyl acetate (Solubility in solvents; as its sulfate): insoluble; solubility in methanol (Solubility in solvents; as its sulfate): soluble; solubility in water (Solubility in solvents; as its sulfate): soluble; solubility in water (Solubility in solvents; free bases): insoluble in water |
